Measured values from the supplement of paper PMC8149375.

How the values were obtained:
Conditions in all cases: treatment: drug alone; 5 days
ACHN [1] = experiment: GI50, drug alone; higher = less potent
Description: (§1)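 Primary HTS: 8 RCC cell lines treated with 8 doses (up to 10 uM) of each library drug alone for 5 days; viability read by CellTiter-Glo and normalised to DMSO. GI50 was fitted with XLfit (4-parameter), AUC is the area under the dose-response curve, and minimum viability is the lowest fraction of DMSO viability across doses.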

CAKI-1 [2] = experiment: GI50, drug alone; higher = less potent
Description: as §1

786-O [3] = experiment: GI50, drug alone; higher = less potent
Description: as §1

SN12C [4] = experiment: GI50, drug alone; higher = less potent
Description: as §1

A498 [5] = experiment: GI50, drug alone; higher = less potent
Description: as §1

769-P [6] = experiment: GI50, drug alone; higher = less potent
Description: as §1

UO-31 [7] = experiment: GI50, drug alone; higher = less potent
Description: as §1

TK-10 [8] = experiment: GI50, drug alone; higher = less potent
Description: as §1

ACHN [9] = experiment: minimum viability across doses, drug alone, relative to DMSO (fraction); higher = less growth inhibition
Description: as §1

CAKI-1 [10] = experiment: as above
Description: as §1

786-O [11] = experiment: as above
Description: as §1

SN12C [12] = experiment: as above
Description: as §1

A498 [13] = experiment: as above
Description: as §1

769-P [14] = experiment: as above
Description: as §1

UO-31 [15] = experiment: as above
Description: as §1

TK-10 [16] = experiment: as above
Description: as §1

ACHN [17] = experiment: AUC of dose-response viability curve, drug alone (arbitrary (AUC of normalised viability)); higher = less growth inhibition
Description: as §1

CAKI-1 [18] = experiment: as above
Description: as §1

786-O [19] = experiment: as above
Description: as §1

SN12C [20] = experiment: as above
Description: as §1

A498 [21] = experiment: as above
Description: as §1

769-P [22] = experiment: as above
Description: as §1

UO-31 [23] = experiment: as above
Description: as §1

TK-10 [24] = experiment: as above
Description: as §1

SMILES	GI50, drug alone (ACHN [1])	GI50, drug alone (CAKI-1 [2])	GI50, drug alone (786-O [3])	GI50, drug alone (SN12C [4])	GI50, drug alone (A498 [5])	GI50, drug alone (769-P [6])	GI50, drug alone (UO-31 [7])	GI50, drug alone (TK-10 [8])	minimum viability across doses (ACHN [9])	minimum viability across doses (CAKI-1 [10])	minimum viability across doses (786-O [11])	minimum viability across doses (SN12C [12])	minimum viability across doses (A498 [13])	minimum viability across doses (769-P [14])	minimum viability across doses (UO-31 [15])	minimum viability across doses (TK-10 [16])	AUC of dose-response viability curve (ACHN [17])	AUC of dose-response viability curve (CAKI-1 [18])	AUC of dose-response viability curve (786-O [19])	AUC of dose-response viability curve (SN12C [20])	AUC of dose-response viability curve (A498 [21])	AUC of dose-response viability curve (769-P [22])	AUC of dose-response viability curve (UO-31 [23])	AUC of dose-response viability curve (TK-10 [24])
C=CC(=O)Nc1cc2c(Nc3ccc(F)c(Cl)c3)ncnc2cc1OCCCN1CCOCC1 [CI-1033 (Canertinib)]	532 nM	5530 nM	> 10000 nM	5220 nM	8550 nM	1000 nM	> 10000 nM	626 nM	0.158	0.382	0.487	0.104	0.141	0.344	0.557	0.156	2.09	2.8	2.52	2.52	3.62	2.24	3.48	2.11
Cc1nc(N)sc1-c1ccnc(Nc2ccc(N3CCOCC3)cc2)n1 [CYC116]	975 nM	693 nM	727 nM	3210 nM	7870 nM	2990 nM	8170 nM	1890 nM	0.107	0.027	0.00272	0.207	0.287	0.137	0.00864	0.152	2.45	2.23	1.88	2.72	3.68	2.86	3.6	2.31
COc1cc2c(Oc3ccc4[nH]c(C)cc4c3F)ncnc2cc1OCCCN1CCCC1 [Cediranib (AZD2171)]	969 nM	740 nM	2600 nM	2870 nM	5360 nM	5430 nM	2980 nM	2290 nM	0.0987	0.0807	0.129	0.248	0.17	0.293	0.0213	0.0469	2.5	2.35	2.5	2.55	3.15	2.94	2.76	2.62
N#CCNC(=O)c1ccc(-c2ccnc(Nc3ccc(N4CCOCC4)cc3)n2)cc1 [Cyt387]	1980 nM	1420 nM	941 nM	8320 nM	> 10000 nM	6390 nM	4280 nM	2700 nM	0.0637	0.0592	0.00487	0.434	0.868	0.29	0.0114	0.152	2.82	2.51	2.19	3.06	4.74	3.08	3.36	2.6
CNC(=O)c1cc(Oc2ccc(NC(=O)Nc3cc(C(C)(C)C)nn3-c3ccc4ncccc4c3)c(F)c2)ccn1 [DCC-2036 (Rebastinib)]	1790 nM	1250 nM	3760 nM	2920 nM	7590 nM	> 10000 nM	1720 nM	2140 nM	0.0439	0.104	0.359	0.0299	0.0163	0.752	0.00743	0.0459	2.92	2.63	2.8	2.95	3.2	3.43	4.08	2.94
CN1CCN(c2ccc3nc(-c4c(N)c5c(F)cccc5[nH]c4=O)[nH]c3c2)CC1 [Dovitinib (TKI-258)]	510 nM	451 nM	6950 nM	956 nM	6940 nM	2560 nM	3540 nM	2260 nM	0.116	0.13	0.395	0.079	0.351	0.0627	0.207	0.252	2.18	2.18	3.27	2.36	3.15	2.64	3.69	2.5
CC(O)C(=O)O.CC(O)C(=O)O.CN1CCN(c2ccc3nc(-c4c(N)c5c(F)cccc5[nH]c4=O)[nH]c3c2)CC1 [Dovitinib Dilactic acid (TKI258 Dilactic acid)]	303 nM	430 nM	2900 nM	1160 nM	> 10000 nM	3050 nM	6520 nM	3160 nM	0.107	0.0485	0.191	0.0691	0.494	0.034	0.342	0.304	2	2.21	2.9	2.38	4.64	3.15	4.66	2.61
COc1cc2nccc(Oc3ccc(NC(=O)NC4CC4)c(Cl)c3)c2cc1C(N)=O [E7080 (Lenvatinib)]	> 10000 nM	2270 nM	> 10000 nM	> 10000 nM	> 10000 nM	> 10000 nM	> 10000 nM	> 10000 nM	0.532	0.267	0.786	0.734	0.941	0.907	1.18	0.806	3.06	2.71	3.13	3.21	3.79	3.46	2.25	3.24
Cc1cc(Nc2cc(N3CCN(C)CC3)nc(/C=C/c3ccccc3)n2)n[nH]1.O=C(O)[C@H](O)[C@@H](O)C(=O)O [ENMD-2076]	344 nM	456 nM	518 nM	1090 nM	4110 nM	2000 nM	1560 nM	1150 nM	0.109	0.038	0.0558	0.162	0.427	0.227	0.0165	0.146	2.1	2.02	1.82	2.46	3.06	2.64	3.01	2.31
C#Cc1cccc(Nc2ncnc3cc(OCCOC)c(OCCOC)cc23)c1.Cl [Erlotinib HCl]	1040 nM	3610 nM	> 10000 nM	> 10000 nM	> 10000 nM	3680 nM	> 10000 nM	5250 nM	0.137	0.183	0.549	0.731	0.915	0.39	0.961	0.471	2.43	2.99	3.37	3.46	3.55	2.66	3.8	2.59
CO[C@H]1C[C@@H]2CC[C@@H](C)[C@@](O)(O2)C(=O)C(=O)N2CCCC[C@H]2C(=O)O[C@H]([C@H](C)C[C@@H]2CC[C@@H](OCCO)[C@H](OC)C2)CC(=O)[C@H](C)/C=C(\C)[C@@H](O)[C@@H](OC)C(=O)[C@H](C)C[C@H](C)/C=C/C=C/C=C/1C [Everolimus (RAD001)]	278 nM	1180 nM	3.85 nM	> 10000 nM	> 10000 nM	> 10000 nM	99.2 nM	> 10000 nM	0.39	0.406	0.293	0.631	0.851	0.56	0.314	0.538	1.85	2.14	1.21	2.56	3.45	2.37	1.96	2.3
CN1CC[C@H](c2c(O)cc(O)c3c(=O)cc(-c4ccccc4Cl)oc23)[C@H](O)C1.Cl [Flavopiridol hydrochloride]	70.7 nM	170 nM	36.9 nM	174 nM	262 nM	225 nM	125 nM	140 nM	0.00461	0.0716	0.00454	0.0105	0.0135	0.0149	0.0096	0.14	1.27	1.85	0.837	1.63	1.92	1.84	1.74	1.57
CC(C)NC[C@@H](C(=O)N1CCN(c2ncnc3c2[C@H](C)C[C@H]3O)CC1)c1ccc(Cl)cc1 [GDC-0068]	9240 nM	8110 nM	251 nM	> 10000 nM	> 10000 nM	> 10000 nM	3090 nM	2260 nM	0.529	0.52	0.252	0.758	0.82	0.81	0.0182	0.375	2.85	3.21	1.88	2.98	4.05	3.51	3.66	2.3
OCCn1cc(-c2ccc3c(c2)CC/C3=N\O)c(-c2ccncc2)n1 [GDC-0879]	> 10000 nM	> 10000 nM	> 10000 nM	> 10000 nM	> 10000 nM	> 10000 nM	> 10000 nM	> 10000 nM	0.745	0.98	0.716	0.999	1.05	0.92	1.18	0.937	3.54	4.13	2.97	3.81	4.12	3.52	5.03	3.5
CS(=O)(=O)N1CCN(Cc2cc3nc(-c4cccc5[nH]ncc45)nc(N4CCOCC4)c3s2)CC1 [GDC-0941]	690 nM	563 nM	1530 nM	1940 nM	6940 nM	1540 nM	2660 nM	660 nM	0.264	0.149	0.254	0.323	0.397	0.221	0.227	0.207	2.41	2.28	2.46	2.56	3.39	2.65	3.82	2.27
Cc1c(CN2CCN(C(=O)[C@H](C)O)CC2)sc2c(N3CCOCC3)nc(-c3cnc(N)nc3)nc12 [GDC-0980 (RG7422)]	231 nM	190 nM	495 nM	370 nM	1360 nM	495 nM	311 nM	167 nM	0.0739	0.0405	0.0296	0.133	0.215	0.0688	0.0186	0.0656	1.89	1.75	2.23	2.07	3.1	2.2	2.23	1.73
